Data from patent publication US6472166B1, “Method for determining the effects of a growth-altering agent on a microbial colony” (Wardlaw Partners LP, priority 2000, dated 2002).

Assays:
Format in all cases: cell-based
E. coli = assay: Microcolony growth imaging of E. coli on Kirby-Bauer type growth medium; conditions: 2 μg/ml, two-hour incubation, E. coli microcolonies, FIG. 2D
Protocol: (§1) FIGS. 2A-2D, 3A-3D, and 4A-4D show digital images of various microorganisms exposed to different growth-altering agents. Here again, the images contained in panels “A” and “B” of each FIGURE were taken immediately after inoculation, and the images contained in panels “C” and “D” of each FIGURE were taken after about two hours of incubation. None of the images in FIGS. 2A-2D, 3A-3D, and 4A-4D are enhanced by digital processing. The images contained in panels “B” and “D” of each FIGURES show regions of the growth medium that have been exposed to a growth-altering agent. The images contained in panels “A” and “C” of each FIGURE have not been exposed to a growth-altering agent and can be used as control reference areas.
The images contained in FIGS. 2A and 2B show regions of a Kirby-Bauer type growth medium immediately after inoculation with E. coli. The images contained in FIGS. 2C and 2D show the same regions after a two-hour incubation period. […] If it is desired to find the threshold of microbial sensitivity, such as is done to determine the minimum inhibitory concentration (MIC), then a series of separate regions each containing a certain concentration of the growth-altering agent may be used and the relative growth in each separate region evaluated. […]

E. faecium = assay: Microcolony growth imaging of E. faecium on Kirby-Bauer type growth medium; conditions: 2 μg/ml, two-hour incubation, E. faecium microcolonies, FIG. 4D
Protocol: as §1
The images contained in FIGS. 4A and 4B show regions of a Kirby-Bauer type growth medium immediately after inoculation with E. faecium. The images contained in FIGS. 4C and 4D show the same regions after a two-hour incubation period.

E. faecalis = assay: Microcolony growth imaging of E. faecalis on Kirby-Bauer type growth medium; conditions: 2 μg/ml, two-hour incubation, E. faecalis microcolonies, FIG. 3D
Protocol: as §1
The images contained in FIGS. 3A and 3B show regions of a Kirby-Bauer type growth medium immediately after inoculation with E. faecalis. The images contained in FIGS. 3C and 3D show the same regions after a two-hour incubation period.

CO/N=C(\C(=O)N[C@@H]1C(=O)N2C(C(=O)O)=C(COC(C)=O)CS[C@H]12)c1csc(N)n1 [cefotaxime]
microcolony perimeter/area ratio characteristic (E. coli): increased perimeter/area ratio characteristic

CN[C@H](CC(C)C)C(=O)N[C@H]1C(=O)N[C@@H](CC(N)=O)C(=O)N[C@H]2C(=O)N[C@H]3C(=O)N[C@H](C(=O)N[C@H](C(=O)O)c4cc(O)cc(O)c4-c4cc3ccc4O)[C@H](O)c3ccc(c(Cl)c3)Oc3cc2cc(c3O[C@@H]2O[C@H](CO)[C@@H](O)[C@H](O)[C@H]2O[C@H]2C[C@](C)(N)[C@H](O)[C@H](C)O2)Oc2ccc(cc2Cl)[C@H]1O [vancomycin]
microcolony growth (E. faecium): show detectable growth | microcolony growth (E. faecalis): do not appear to exhibit any growth
